Reference: PubChem BioAssay (NCI)
Several values for one entry are separate records, joined by “and”; a condition that tells them apart may be missing. Identical values can stand only once.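 The compound was tested at five concentrations on cells cultured in 96-well plates, with a 48-hour exposure period. Abbreviation: GI50, concentration required for 50% inhibition of growth. TGI marks complete inhibition of growth.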

System: HCC-2998 colon
Assay: inhibition of tumour cell growth, NCI panel, 48 h

| Structure (SMILES) | TGI | GI50 [µM] |
| --- | --- | --- |
| OCC(O)CNc1ccnc2cc(Cl)ccc12 (stereo not drawn) | > 100 µM |  |
| Cc1cccc(C(C)C)c1NC(=O)C(=O)C(C(=O)c1ccccc1F)C1OC(=O)c2ccccc21 (stereo not drawn) | 26.6 µM |  |
| Cc1ccc(Nc2nnc(-c3ccc4c(c3)OCO4)o2)c(C)c1 | > 100 µM |  |
| CC1=C(c2cc(C(=O)Nc3ccc(Cl)cc3)nc(=S)[nH]2)Sc2ccccc2N1 | > 100 µM |  |
| CC1=C(C(=O)NNS(=O)(=O)c2ccc(C)cc2)CC(C(=O)NNS(=O)(=O)c2ccc(C)cc2)=C(C)N1 | > 100 µM |  |
| Clc1cc(Cl)cc(Nc2ccc3cc(OCCCN4CCOCC4)ccc3n2)c1 | 3.31 µM | 1.73 |
| [F][Sn]([F])([c]1ccccc1)[c]1ccccc1 | 3.04 µM | 1.63 |
| N#CC(C(=O)CCC(=O)Nc1cccc(C(F)(F)F)c1)c1ccc(Cl)cc1 (stereo not drawn) | > 100 µM |  |
| COC(=O)/C(=C\c1ccc(N(CCC#N)CCC#N)cc1)NC(=O)c1cc([N+](=O)[O-])ccc1Cl | > 100 µM |  |
| COC1=C(Br)C(=O)c2nc(C)ccc2C1=O | 32.2 µM |  |
| C/C(CCn1[nH]c(=O)ccc1=O)=N\OCCCc1ccccc1 | > 100 µM |  |
| COC(=O)c1cccc2cccc(C(=O)Nc3ccc(Cl)cc3)c12 | > 100 µM |  |
| N.N.NCCCCCCCCCN.O=C([O-])CC(=O)[O-].O=C([O-])CC(=O)[O-].[Pt+4].[Pt+4] | > 100 µM | > 100 |
| CCN(CC)c1cc2oc3cc(N)cc(=N)c-3nc2cc1C | 81.2 µM | 10 |
| CC(C(=O)n1c2ccccc2c2ccccc21)N(c1ccccc1)c1ccccc1 (stereo not drawn) | 30.1 µM |  |
| CCCCc1c2c(nc3c1CCC/C3=C\c1ccccc1)/C(=C/c1ccccc1)CCC2 | > 100 µM |  |
| CC(C)(C)OC(=O)N1N=NC2C1C1CC(OCc3ccccc3)(OCc3ccccc3)C2O1 (stereo not drawn) | > 100 µM |  |
| CC(O)CC(O)(C(F)(F)F)C(F)(F)F (stereo not drawn) | > 10 µM |  |

| Structure (SMILES) | TGI | GI50 [µM] |
| --- | --- | --- |
| O=C1CSC(c2ccc(-c3nc4ccccc4s3)cc2)=N1 | 78.5 µM | 25.9 |
| CC1=CC(=O)C(C(O)(C(F)(F)F)C(F)(F)F)C(C)(C)C1 (stereo not drawn) | > 10 µM |  |
| O=C1C(=O)N(c2cc(Cl)ccc2Cl)C(=O)C(=O)C1c1nc2ccccc2o1 | > 100 µM |  |
| CC1=C(C(=O)Nc2ccccc2)C(c2ccc(C3C(C(=O)Nc4ccccc4)=C(C)NC(C)=C3C(=O)Nc3ccccc3)cc2)C(C(=O)Nc2ccccc2)=C(C)N1 | 5.74 µM |  |
| CCC(=O)Nc1ccc(N=NN(C)C)cc1 | 6.64 µM |  |
| CCOC(=O)/C(=C/c1cccc(C#N)c1)N(CC)CC | > 100 µM |  |
| O=S1(=O)OCCOS(=O)(=O)C1Cl | > 100 µM |  |
| COc1cc(C2C(C(=O)Nc3cc(F)c(F)cc3F)=C(C)NC(C)=C2C(=O)Nc2cc(F)c(F)cc2F)ccc1O | 33.4 µM |  |
| O=c1nc(-c2ccccc2)cc(-c2ccccc2O)[nH]1 | > 100 µM |  |
| Oc1ccc(Br)cc1C=Nc1ccc(N=Cc2cc(Br)ccc2O)cc1 | > 100 µM |  |
| CCOc1ccccc1NC(=O)C(=O)Cc1nc2ccccc2s1 | > 100 µM |  |
| CO/N=C(/C)c1cccc(Nc2cc(-c3ccccc3)nc3ccc(OC)cc23)c1 | 20.8 µM | 4.97 |
| C=CCn1c2c(sc1=S)C(S)N=CN2 (stereo not drawn) | > 100 µM |  |
| Cc1cccc(N=C2NC(=O)C(CC(=O)Nc3cccc(C)c3C)S2)c1 (stereo not drawn) | > 100 µM |  |
| CN(C)CCSc1nccc(-c2cc3ccccc3s2)n1 | 29.3 µM |  |
| O=C(O)CSc1n[nH]c(Cc2ccccc2)n1 | > 100 µM |  |
| CCOc1ccccc1NC(=O)C(C#N)C1=C(Cl)C(=O)c2ccccc2C1=O (stereo not drawn) | 3.15 µM and 25.6 µM | 12.3 |

System: EKVX NSCLC
Assay: inhibition of tumour cell growth, NCI panel, 48 h

| Structure (SMILES) | GI50 [µM] | TGI |
| --- | --- | --- |
| C=C1CC[C@@H](C(C)C)C[C@@H]2[C@H]([C@H](O)C[C@]2(C)O)[C@@]2(C)CC[C@@H]1O2 | 28 | 55.9 µM |
| Nc1ccc2[nH]cc(CCC(=O)O)c2c1 |  | > 100 µM |
| OCC(O)CNc1ccnc2cc(Cl)ccc12 (stereo not drawn) |  | > 100 µM |
| Cc1cccc(C(C)C)c1NC(=O)C(=O)C(C(=O)c1ccccc1F)C1OC(=O)c2ccccc21 (stereo not drawn) |  | 96.6 µM |
| Cc1ccc(Nc2nnc(-c3ccc4c(c3)OCO4)o2)c(C)c1 |  | > 100 µM |
| Cc1cccc(C)c1NC(=O)C(=O)CC(=O)c1cccc([N+](=O)[O-])c1 |  | > 100 µM |
| CC1=C(c2cc(C(=O)Nc3ccc(Cl)cc3)nc(=S)[nH]2)Sc2ccccc2N1 |  | > 100 µM |
| O=C(O)CN(c1ccccc1)S(=O)(=O)c1ccc([N+](=O)[O-])cc1 |  | > 100 µM |
| CC1=C(C(=O)NNS(=O)(=O)c2ccc(C)cc2)CC(C(=O)NNS(=O)(=O)c2ccc(C)cc2)=C(C)N1 |  | > 100 µM |
| Clc1cc(Cl)cc(Nc2ccc3cc(OCCCN4CCOCC4)ccc3n2)c1 | 3.39 | > 100 µM |
| [F][Sn]([F])([c]1ccccc1)[c]1ccccc1 | 1.83 | 3.96 µM |
| N#CC(C(=O)CCC(=O)Nc1cccc(C(F)(F)F)c1)c1ccc(Cl)cc1 (stereo not drawn) |  | > 100 µM |
| Cc1cc(C(C)(C)C)cc(Cc2cc(C(C)(C)C)cc(Cc3cc(C(C)(C)C)cc(C)c3O)c2O)c1O |  | 22.9 µM |
| COC(=O)/C(=C\c1ccc(N(CCC#N)CCC#N)cc1)NC(=O)c1cc([N+](=O)[O-])ccc1Cl |  | > 100 µM |
| COC1=C(Br)C(=O)c2nc(C)ccc2C1=O |  | 33.4 µM |
| C/C(CCn1[nH]c(=O)ccc1=O)=N\OCCCc1ccccc1 |  | > 100 µM |
| COC(=O)c1cccc2cccc(C(=O)Nc3ccc(Cl)cc3)c12 |  | > 100 µM |
| N.N.NCCCCCCCCCN.O=C([O-])CC(=O)[O-].O=C([O-])CC(=O)[O-].[Pt+4].[Pt+4] | > 100 | > 100 µM |
| CCN(CC)c1cc2oc3cc(N)cc(=N)c-3nc2cc1C | 4.02 | 54.6 µM |
| CC(=O)OC1C2CCC1C1C2C2(Cl)C(Cl)=C(Cl)C1(Cl)C2(Cl)Cl (stereo not drawn) |  | 24.1 µM |
| CC(C(=O)n1c2ccccc2c2ccccc21)N(c1ccccc1)c1ccccc1 (stereo not drawn) |  | 38.8 µM |
| CCOC(=O)Cn1c(=O)n(C)c(=O)c2c1ncn2Cc1ccccc1 |  | > 100 µM |

| Structure (SMILES) | GI50 [µM] | TGI |
| --- | --- | --- |
| CCCCc1c2c(nc3c1CCC/C3=C\c1ccccc1)/C(=C/c1ccccc1)CCC2 |  | > 100 µM |
| CC(O)CC(O)(C(F)(F)F)C(F)(F)F (stereo not drawn) |  | > 10 µM |
| O=C1CSC(c2ccc(-c3nc4ccccc4s3)cc2)=N1 | 1.81 | 13.5 µM |
| CC1=CC(=O)C(C(O)(C(F)(F)F)C(F)(F)F)C(C)(C)C1 (stereo not drawn) |  | > 10 µM |
| O=C1C(=O)N(c2cc(Cl)ccc2Cl)C(=O)C(=O)C1c1nc2ccccc2o1 |  | > 100 µM |
| Cc1ncc([N+](=O)[O-])n1CCNS(=O)(=O)CCCn1ncnc1[N+](=O)[O-] |  | > 100 µM |
| CC1=C(C(=O)Nc2ccccc2)C(c2ccc(C3C(C(=O)Nc4ccccc4)=C(C)NC(C)=C3C(=O)Nc3ccccc3)cc2)C(C(=O)Nc2ccccc2)=C(C)N1 |  | 10.6 µM |
| O=C(O)C12CC3(C(=O)O)CC(C(=O)O)(CC(C(=O)O)(C1)C3=O)C2=O |  | > 100 µM |
| CCC(=O)Nc1ccc(N=NN(C)C)cc1 |  | > 100 µM |
| CCOC(=O)/C(=C/c1cccc(C#N)c1)N(CC)CC |  | > 100 µM |
| O=S1(=O)OCCOS(=O)(=O)C1Cl |  | > 100 µM |
| COc1cc(C2C(C(=O)Nc3cc(F)c(F)cc3F)=C(C)NC(C)=C2C(=O)Nc2cc(F)c(F)cc2F)ccc1O |  | 73.9 µM |
| O=c1nc(-c2ccccc2)cc(-c2ccccc2O)[nH]1 |  | > 100 µM |
| Oc1ccc(Br)cc1C=Nc1ccc(N=Cc2cc(Br)ccc2O)cc1 |  | > 100 µM |
| CCOc1ccccc1NC(=O)C(=O)Cc1nc2ccccc2s1 |  | > 100 µM |
| CO/N=C(/C)c1cccc(Nc2cc(-c3ccccc3)nc3ccc(OC)cc23)c1 | 10.8 | 30.3 µM |
| C=CCn1c2c(sc1=S)C(S)N=CN2 (stereo not drawn) |  | > 100 µM |
| Cc1cccc(N=C2NC(=O)C(CC(=O)Nc3cccc(C)c3C)S2)c1 (stereo not drawn) |  | > 100 µM |
| O=C(O)CSc1n[nH]c(Cc2ccccc2)n1 |  | > 100 µM |
| O=[N+]([O-])c1ccc(CSCc2ccc(Cl)cc2)cc1 |  | > 100 µM |
| CCOc1ccccc1NC(=O)C(C#N)C1=C(Cl)C(=O)c2ccccc2C1=O (stereo not drawn) | 2.86 | 2.83 µM and 5.82 µM |

System: MCF7 breast
Assay: inhibition of tumour cell growth, NCI panel, 48 h

| Structure (SMILES) | GI50 [µM] | TGI [µM] |
| --- | --- | --- |
| C=C1CC[C@@H](C(C)C)C[C@@H]2[C@H]([C@H](O)C[C@]2(C)O)[C@@]2(C)CC[C@@H]1O2 | 16.2 | 29.7 |
| Nc1ccc2[nH]cc(CCC(=O)O)c2c1 |  | > 100 |
| Cc1ccc(Nc2nnc(-c3ccc4c(c3)OCO4)o2)c(C)c1 |  | > 100 |
| CCN(CC)c1cc2oc3cc(N)cc(=N)c-3nc2cc1C | 1.86 | 4.49 |
| CC(O)CC(O)(C(F)(F)F)C(F)(F)F (stereo not drawn) |  | > 10 |
| CC1=CC(=O)C(C(O)(C(F)(F)F)C(F)(F)F)C(C)(C)C1 (stereo not drawn) |  | > 10 |
| Cc1ncc([N+](=O)[O-])n1CCNS(=O)(=O)CCCn1ncnc1[N+](=O)[O-] |  | > 100 |
| CC1=C(C(=O)Nc2ccccc2)C(c2ccc(C3C(C(=O)Nc4ccccc4)=C(C)NC(C)=C3C(=O)Nc3ccccc3)cc2)C(C(=O)Nc2ccccc2)=C(C)N1 |  | 14.7 |
